Source: patent US9149044B2, “Pesticidal compositions” (Syngenta Participations AG, priority 2011, dated 2015)

System: Heterodera glycines race 3
Assay: Soybean pot test, cyst count as indicator of nematode control
Type: in vivo
Conditions: 28 days after planting
Text: A plug measuring 0.75 inch (approximately 1.9 cm) in diameter and 1 inch (approx. 2.5 cm) in depth was removed from each 3 inch diameter×8 inch deep (approx. 7.6×20 cm) plastic pot. Five thousand Heterodera glycines race 3 eggs were placed at the bottom of the plug hole. A soybean variety 3.6-B6 seed was placed on top of the inoculum. Six replicates were made for each treatment group. In addition to untreated control, the treatment groups were Pasteuria nishizawae, Bacillus firmus, and Pasteuria nishizawae+Bacillus firmus.
Bacillus firmus came applied as a seed treatment (available commercially, for example, from Bayer Crop Science as VOTIVO product, PONCHO/VOTIVO, having Bacillus firmus concentration at least 2×10^9 cfu/ml+clothianidin (0.13 mg/seed)). A point application containing Pasteuria nishizawae (approximately 5.0×10^9 spores) was applied directly to the seed in the pot. The plug was replaced in the hole to cover the seed. The soil was Vero Beach (Florida, USA) top soil, pH 5.9 (approximate composition sand 93%, silt 2%, clay 2%, organic matter 3%).
At 28 days after planting, plant height was measured and plants were removed from the pots. Soil was gently rinsed from the roots. The rinsed roots were placed in a 20 mesh over a 60 mesh sieve. The root system was blasted with water to remove cyst nematode females. The 20 mesh sieve was removed and the cysts were washed to the bottom of the 60 mesh sieve. The cysts were rinsed into a tube for counting under a stereoscope. Later the dry root weights were measured.

Pasteuria nishizawae
Average Cyst Count (5000 eggs per pot, average of six replicates): 366
Cyst Count (5000 eggs per pot, cysts washed from roots, average of six replicates): 366
% Control Observed (from cyst count versus untreated control): 2.40%
